Target: T1, human recombinant IL-17A (Homo sapiens, UniProt Q16552)
T1 construct: purchased R&D Systems 7955-IL/CF
T1 sequence (Q16552 24-155): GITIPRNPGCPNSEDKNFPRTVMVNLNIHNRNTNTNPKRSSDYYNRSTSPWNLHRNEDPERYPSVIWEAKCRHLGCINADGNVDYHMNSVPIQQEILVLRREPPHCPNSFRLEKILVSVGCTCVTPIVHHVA
Assay: IL-17A AlphaLISA assay (block binding of IL-17A to its receptor IL-17RA)
Conditions: compounds pre-incubated with the IL-17A for 30 min (indicated by * in Table A); read-out: AlphaLISA pIC50 (converted)
Outline: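 Compounds pre-incubated 24 h at RT (30 min where flagged) with human IL-17A (7.5 nM stock) before IL-17RA/Fc (5 nM stock), 90 min. Read by AlphaLISA via anti-Fc acceptor and biotin anti-IL-17A/streptavidin donor beads, 680/615 nm. 4-parameter fit; DMSO and 6 μM reference inhibitor as controls; pIC50.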

SMILES	IC50
Cc1n[nH]c(C)c1-c1ccc(NC(=O)[C@@H](NC(=O)c2ccnn2C)[C@H]2CC[C@H](C)CC2)nc1 [Example 99, N—((S)-2-((5-(3,5-Dimethyl-1H-pyrazol-4-yl)pyridin-2-yl)amino)-1-((1r,4S)-4-methylcyclohexyl)-2-oxoethyl)-1-methyl-1H-pyrazole-5-carboxamide]	200 nM
Cc1cncc(C)c1-c1ccc(NC(=O)C(NC(=O)c2ccnn2C)C2CCCCCCC2)cc1 (stereo not drawn) [Example 103, N-(1-Cyclooctyl-2-((4-(3,5-dimethylpyridin-4-yl)phenyl)amino)-2-oxoethyl)-1-methyl-1H-pyrazole-5-carboxamide]	126 nM
Cc1n[nH]c(C)c1-c1ccc(NC(=O)C(NC(=O)c2ccnn2C)C2CCCCCCC2)cc1 (stereo not drawn) [Example 104, N-(1-Cyclooctyl-2-((4-(3,5-dimethyl-1H-pyrazol-4-yl)phenyl)amino)-2-oxoethyl)-1-methyl-1H-pyrazole-5-carboxamide]	79.4 nM
Cc1noc(C)c1-c1ccc(NC(=O)C(NC(=O)c2ccnn2C)C2CCCCCCC2)nc1 (stereo not drawn) [Example 105, N-(1-Cyclooctyl-2-((5-(3,5-dimethylisoxazol-4-yl)pyridin-2-yl)amino)-2-oxoethyl)-1-methyl-1H-pyrazole-5-carboxamide]	158 nM
Cc1cnn(C)c1-c1ccc(NC(=O)[C@@H](NC(=O)c2ccnn2C)[C@H]2CC[C@H](C)CC2)nc1 [Example 106, N—((S)-2-((5-(1,4-Dimethyl-1H-pyrazol-5-yl)pyridin-2-yl)amino)-1-((1r,4S)-4-methylcyclohexyl)-2-oxoethyl)-1-methyl-1H-pyrazole-5-carboxamide]	100 nM

Now from value to compound:

IC50	SMILES
158 nM	Cc1c(-c2ccc(NC(=O)C(NC(=O)c3ccnn3C)C3CCCCCCC3)cc2)ccc(=O)n1C (stereo not drawn) [Example 107, N-(1-Cyclooctyl-2-((4-(1,2-dimethyl-6-oxo-1,6-dihydropyridin-3-yl)phenyl)amino)-2-oxoethyl)-1-methyl-1H-pyrazole-5-carboxamide]
126 nM	Cc1noc(C)c1-c1ccc(NC(=O)[C@@H](NC(=O)c2ccnn2C(C)C)C2CCCCC2)nc1 [Example 108, (S)—N-(1-Cyclohexyl-2-((5-(3,5-dimethylisoxazol-4-yl)pyridin-2-yl)amino)-2-oxoethyl)-1-isopropyl-1H-pyrazole-5-carboxamide]
100 nM	CCn1nccc1C(=O)N[C@H](C(=O)Nc1ccc(-c2c(C)noc2C)cn1)[C@H]1CC[C@H](C)CC1 [Example 109, N—((S)-2-((5-(3,5-Dimethylisoxazol-4-yl)pyridin-2-yl)amino)-1-((1r,4S)-4-methylcyclohexyl)-2-oxoethyl)-1-ethyl-1H-pyrazole-5-carboxamide]
79.4 nM	Cc1noc(C)c1-c1ccc(NC(=O)[C@@H](NC(=O)c2ccnn2C(C)C)[C@H]2CC[C@H](C)CC2)nc1 [Example 110, N—((S)-2-((5-(3,5-dimethylisoxazol-4-yl)pyridin-2-yl)amino)-1-((1r,4S)-4-methylcyclohexyl)-2-oxoethyl)-1-isopropyl-1H-pyrazole-5-carboxamide]
79.4 nM	CCc1nocc1C(=O)N[C@H](C(=O)Nc1ccc(-c2c(C)noc2C)cn1)[C@H]1CC[C@H](C)CC1 [Example 111, N—((S)-2-((5-(3,5-dimethylisoxazol-4-yl)pyridin-2-yl)amino)-1-((1r,4S)-4-methylcyclohexyl)-2-oxoethyl)-3-ethylisoxazole-4-carboxamide]
100 nM	Cc1nocc1C(=O)N[C@H](C(=O)Nc1ccc(-c2c(C)noc2C)cn1)[C@H]1CC[C@H](C)CC1 [Example 112, N—((S)-2-((5-(3,5-dimethylisoxazol-4-yl)pyridin-2-yl)amino)-1-((1r,4S)-4-methylcyclohexyl)-2-oxoethyl)-3-methylisoxazole-4-carboxamide]
158 nM	Cc1cnn(C)c1-c1ccc(NC(=O)C(NC(=O)c2ccnn2C)C2CCCCCCC2)nc1 (stereo not drawn) [Example 113, N-(1-Cyclooctyl-2-((5-(1,4-dimethyl-1H-pyrazol-5-yl)pyridin-2-yl)amino)-2-oxoethyl)-1-methyl-1H-pyrazole-5-carboxamide]

— patent US20230227427A1, “IL-17A MODULATORS” (SANOFI, priority 2010, published 2023)
